Experimental findings from patent US7425567B2, “Piperidine derivative compounds and drugs containing the compounds as the active ingredient” (Ono Pharmaceutical Co., Ltd., priority 2002, dated 2008) are described below.

One assay addresses PDE4. Put plainly: In vitro enzyme assay, PDE4 inhibitory activity. The assay is classed as biochemical. To be noted: PDE4 enzyme solution from U937 cells (derived from human monocyte), 3H-cAMP substrate, room temperature, 30 minutes; read-out: IC50 (concentration of 50% inhibition of PDE4 activity). As for the experimental part: U937 cells (derived from human monocyte) were cultured in PRMI 1640 medium containing 10% bovine fetal serum. The U937 cells were harvested and homogenized in 50 mM Tris-HCl buffer [pH 7.5, containing PMSF (1 mM), leupeptin (1 μg/ml) and pepstatin A (1 μg/ml)]. After centrifugation (at 15,000 rpm for 10 minutes), the supernatant was recovered and filtered through a 0.45 μm filter. The sample was applied to MonoQ (manufactured by Pharmacia, strong anion exchange resin) column and eluted by a density gradient of 0 to 0.8 M NaCl. Fractions from which the PDE activity was disappeared by 10 μM rolipram (a PDE4-selective inhibitor) were recovered and used as the enzyme solution for the measurement of PDE4 inhibitory activity.
The enzyme activity was measured by the following method. […] To an alumina column (100 μl), was applied 50 μl of the supernatant, eluted with 80 μl of 0.005 N hydrochloric acid, and radioactivity of the eluate was measured.
PDE4 inhibitory activity ratio of the compound of the present invention of formula (I) was calculated by the following equation: PDE4 activity inhibitory ratio (%)=(1−radioactivity in the presence of the compound of the present invention of formula (1)/radioactivity in the absence of the compound of the present invention of formula (I))×100 […]

A further assay has as its system TNF-α production. The assay is described as follows: TNF-α production inhibitory effect in LPS-stimulated heparinized blood. It is filed as cell-based. As to conditions: blood of a healthy person, 6 hours incubation, human TNF-α ELISA. The procedure: A heparinized blood sample collected from a healthy person was dispensed in 180 μl/well into a 96-well plate. A solution of compound 1 (final concentration of DMSO: 0.1% or less) was dispensed at 10 μl and the plate was allowed to stand at 37° C. for 30 minutes in a 5% CO2 incubator. The reaction was initiated by adding 10 μl of LPS solution. After 6 hours of incubation in a CO2 incubator (5% CO2, humidified), the plate was shaken and then centrifuged at 300×g for 5 minutes to recover 50 μl of the supernatant (blood plasma). The amount of TNF-α in the supernatant was measured using a human TNF-α ELISA kit (DIACLONE Cat. No. 850.090.096) in accordance with the method attached thereto.

The structures appear in SMILES notation.

Regarding `N#CC1(c2ccc(OC(F)F)c(OC3CCCC3)c2)CCN(CC(=O)O)CC1` [compound 1, 2-(4-(3-cyclopentyloxy-4-difluoromethoxyphenyl)-4-cyanopiperidin-1-yl)acetic acid monohydrate], the IC50 on PDE4 turned out to be 42 nM. Moreover, in the assay with TNF-α production, the “inhibitory activity against TNF-α production” value was “dose-dependent inhibitory activity”.
